Legend:
human CB2 receptors = human CB2 receptors (Homo sapiens (Human), UniProt P34972); assay: functional cAMP assay, CB2; format: cell-based; details: CHO cells expressing human CB2
Method: (§1) The growth medium was exchanged with Krebs Ringer Bicarbonate buffer with 1 mM IBMX and incubated at 30° C. for 30 min. Compounds were added to a final assay volume of 100 μl and incubated for 30 min at 30° C. Using the cAMP-Nano-TRF detection kit the assay (Roche Diagnostics) was stopped by the addition of 50 μl lysis reagent (Tris, NaCl, 1.5% Triton X100, 2.5% NP40, 10% NaN3) and 50 μl detection solutions (20 μM mAb Alexa700-cAMP 1:1, and 48 μM Ruthenium-2-AHA-cAMP) and shaken for 2 h at room temperature. The time-resolved energy transfer is measured by a TRF reader (Evotec Technologies GmbH), equipped with a ND:YAG laser as excitation source. The plate is measured twice with the excitation at 355 nm and at the emission with a delay of 100 ns and a gate of 100 ns, total exposure time 10 s at 730 (bandwidth 30 nm) or 645 nm (bandwidth 75 nm), respectively.
(§2) EC50 values were determined using Activity Base analysis (ID Business Solution, Limited).

human CB1 receptors = human CB1 receptors (Homo sapiens (Human), UniProt P21554); assay: functional cAMP assay, CB1; format: cell-based; details: CHO cells expressing human CB1
Chain of human CB1 receptors (P21554 whole entry): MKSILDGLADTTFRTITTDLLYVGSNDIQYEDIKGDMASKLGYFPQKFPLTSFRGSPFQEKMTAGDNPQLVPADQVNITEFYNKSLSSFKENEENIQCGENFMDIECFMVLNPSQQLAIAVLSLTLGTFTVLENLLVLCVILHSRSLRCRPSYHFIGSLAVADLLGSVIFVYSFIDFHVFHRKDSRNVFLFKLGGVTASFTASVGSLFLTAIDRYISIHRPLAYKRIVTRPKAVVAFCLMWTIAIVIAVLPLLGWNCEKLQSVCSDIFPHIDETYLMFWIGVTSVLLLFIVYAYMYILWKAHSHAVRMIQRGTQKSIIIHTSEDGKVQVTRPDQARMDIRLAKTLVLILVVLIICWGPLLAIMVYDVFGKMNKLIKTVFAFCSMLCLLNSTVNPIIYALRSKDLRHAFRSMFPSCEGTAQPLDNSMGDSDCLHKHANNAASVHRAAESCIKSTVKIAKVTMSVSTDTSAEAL
Method: as §1, §2

Chain of human CB2 receptors (P34972 whole entry): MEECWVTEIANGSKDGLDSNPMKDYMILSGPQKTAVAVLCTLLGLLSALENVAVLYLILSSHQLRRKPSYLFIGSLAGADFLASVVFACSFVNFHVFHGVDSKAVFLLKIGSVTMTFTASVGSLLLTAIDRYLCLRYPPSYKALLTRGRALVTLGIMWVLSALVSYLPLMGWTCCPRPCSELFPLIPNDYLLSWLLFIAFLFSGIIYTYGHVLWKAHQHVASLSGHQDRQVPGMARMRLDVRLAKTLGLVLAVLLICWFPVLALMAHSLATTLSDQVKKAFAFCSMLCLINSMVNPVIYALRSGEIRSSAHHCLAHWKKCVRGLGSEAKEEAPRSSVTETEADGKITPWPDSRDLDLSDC

Row | SMILES | EC50 (human CB2 receptors) [µM] | EC50 (human CB1 receptors) [µM]
1 | CC(C)(C)c1nc(N2CCC(F)(F)C2)c2ncn(Cc3ccc(Cl)cc3)c2n1 [Example 1, 2-Tert-Butyl-9-[(4-Chlorophenyl)Methyl]-6-(3,3-Difluoropyrrolidin-1-Yl)Purine] | 0.0116 | > 10
2 | CC(C)(C)c1nc(N2CCC(F)(F)C2)c2ncn(Cc3ccccc3Cl)c2n1 [Example 2, 2-tert-butyl-9-[(2-chlorophenyl)methyl]-6-(3,3-difluoropyrrolidin-1-yl)purine] | 0.0006 | 
3 | Cc1ccc(Cn2cnc3c(N4CCC(F)(F)C4)nc(C(C)(C)C)nc32)cc1 [Example 3, 2-tert-butyl-6-(3,3-difluoropyrrolidin-1-yl)-9-[(4-methylphenyl)methyl]purine] |  | > 10
4 | CC(C)(C)c1nc(N2CCC(F)(F)C2)c2ncn(Cc3ccc(F)cc3Cl)c2n1 [Example 4, 2-tert-butyl-9-[(2-chloro-4-fluorophenyl)methyl]-6-(3,3-difluoropyrrolidin-1-yl)purine] | 0.0031 | > 10
5 | CC(C)(C)c1nc(N2CCC(F)(F)C2)c2ncn(Cc3ccccc3C(F)(F)F)c2n1 [Example 5, 2-tert-butyl-6-(3,3-difluoropyrrolidin-1-yl)-9-[[2-(trifluoromethyl)phenyl]methyl]purine] | 0.0007 | 
6 | CC(C)(C)c1nc(N2CCC(F)(F)C2)c2ncn(Cc3cccnc3Cl)c2n1 [Example 6, 2-tert-butyl-9-[(2-chloropyridin-3-yl)methyl]-6-(3,3-difluoropyrrolidin-1-yl)purine] | 0.0005 | 
7 | Cc1noc(Cn2cnc3c(N4CCC(F)(F)C4)nc(C(C)(C)C)nc32)n1 [Example 7, 5-[[2-tert-butyl-6-(3,3-difluoropyrrolidin-1-yl)purin-9-yl]methyl]-3-methyl-1,2,4-oxadiazole] | 0.0347 | > 10
8 | CCCn1cnc2c(N3CCC(F)(F)C3)nc(C(C)(C)C)nc21 [Example 10, 2-tert-butyl-6-(3,3-difluoropyrrolidin-1-yl)-9-propylpurine] |  | > 10
9 | CC(C)(C)c1nc(N2CCC(F)(F)C2)c2ncn(CCc3ccccc3)c2n1 [Example 13, 2-tert-butyl-6-(3,3-difluoropyrrolidin-1-yl)-9-(2-phenylethyl)purine] | 0.0054 | 
10 | COCCn1cnc2c(N3CCC(F)(F)C3)nc(C(C)(C)C)nc21 [Example 15, 2-tert-butyl-6-(3,3-difluoropyrrolidin-1-yl)-9-(2-methoxyethyl)purine] |  | > 10
11 | CC(C)(C)c1nc(N2CCC(F)(F)C2)c2ncn(CCC(F)(F)F)c2n1 [Example 19, 2-tert-butyl-6-(3,3-difluoropyrrolidin-1-yl)-9-(3,3,3-trifluoropropyl)purine] |  | > 10
12 | CC(C)(C)c1nc(N2CCC(O)C2)c2ncn(Cc3ccc(Cl)cc3)c2n1 (centres unmarked) [Example 26, 1-[2-tert-butyl-9-[(4-chlorophenyl)methyl]purin-6-yl]pyrrolidin-3-ol] |  | > 10
13 | CCCn1cnc2c(N3CCC(O)C3)nc(C(C)(C)C)nc21 (centres unmarked) [Example 36, 1-(2-tert-butyl-9-propylpurin-6-yl)pyrrolidin-3-ol] |  | > 10
14 | CC(C)(C)c1nc(N2CCC(F)(F)C2)c2ncn(Cc3c[nH]nc3C(F)(F)F)c2n1 [Example 41, 2-tert-butyl-6-(3,3-difluoropyrrolidin-1-yl)-9-[[3-(trifluoromethyl)-1H-pyrazol-4-yl]methyl]purine] | 0.0092 | 
15 | CC(=O)N[C@H]1CCN(c2nc(C(C)(C)C)nc3c2ncn3Cc2ccccc2Cl)C1 [Example 48, N—{(S)-1-[2-tert-Butyl-9-(2-chloro-benzyl)-9H-purin-6-yl]-pyrrolidin-3-yl}-acetamide] |  | > 10
16 | CC(=O)N[C@H]1CCN(c2nc(C(C)(C)C)nc3c2ncn3Cc2nonc2C)C1 [Example 55, N—[(S)-1-[2-tert-butyl-9-[(4-methyl-1,2,5-oxadiazol-3-yl)methyl]purin-6-yl]pyrrolidin-3-yl]acetamide] |  | > 10
17 | CC1(O)CCN(c2nc(C(C)(C)C)nc3c2ncn3Cc2ccc(Cl)cc2)C1 (centres unmarked) [Example 66, 1-[2-tert-butyl-9-[(4-chlorophenyl)methyl]purin-6-yl]-3-methylpyrrolidin-3-ol] |  | > 10
18 | Cc1nonc1Cn1cnc2c(N3CCC(C)(O)C3)nc(C(C)(C)C)nc21 (centres unmarked) [Example 70, 1-[2-tert-butyl-9-[(4-methyl-1,2,5-oxadiazol-3-yl)methyl]purin-6-yl]-3-methylpyrrolidin-3-ol] |  | > 10
19 | COCCn1cnc2c(N3CCC(C)(O)C3)nc(C(C)(C)C)nc21 (centres unmarked) [Example 71, 1-[2-tert-butyl-9-(2-methoxyethyl)purin-6-yl]-3-methylpyrrolidin-3-ol] |  | > 10
20 | CC(C)(C)c1nc(N2CC(F)(F)C(F)(F)C2)c2ncn(Cc3ccccc3Cl)c2n1 [Example 72, 2-tert-butyl-9-[(2-chlorophenyl)methyl]-6-(3,3,4,4-tetrafluoropyrrolidin-1-yl)purine] |  | > 10
21 | Cc1nonc1Cn1cnc2c(N3CC(F)(F)C(F)(F)C3)nc(C(C)(C)C)nc21 [Example 82, 3-[[2-tert-butyl-6-(3,3,4,4-tetrafluoropyrrolidin-1-yl)purin-9-yl]methyl]-4-methyl-1,2,5-oxadiazole] |  | > 10
22 | CC(C)(C)c1nc(N2CC[C@H](O)C2)c2ncn(Cc3ccc(Cl)cc3)c2n1 [Example 88, (3S)-1-[2-tert-butyl-9-[(4-chlorophenyl)methyl]purin-6-yl]pyrrolidin-3-ol] |  | > 10
23 | Cc1nnc(Cn2cnc3c(N4CCC(F)(F)C4)nc(NC(C)(C)C)nc32)o1 [Example 109, N-tert-butyl-6-(3,3-difluoropyrrolidin-1-yl)-9-[(5-methyl-1,3,4-oxadiazol-2-yl)methyl]purin-2-amine] |  | > 10
24 | CC(C)(C)Nc1nc(N2CC[C@H](O)C2)c2ncn(Cc3c[nH]nc3C(F)(F)F)c2n1 [Example 122, (3S)-1-[2-(tert-butylamino)-9-[[3-(trifluoromethyl)-1H-pyrazol-4-yl]methyl]purin-6-yl]pyrrolidin-3-ol] |  | > 10
25 | CC(C)(C)Nc1nc(N2CC3(COC3)C2)c2ncn(Cc3ccccc3C(F)(F)F)c2n1 [Example 137, N-tert-butyl-6-(2-oxa-6-azaspiro[3.3]heptan-6-yl)-9-[[2-(trifluoromethyl)phenyl]methyl]purin-2-amine] |  | > 10
26 | Cc1nonc1Cn1cnc2c(N3CCN(C)CC3)nc(C(C)(C)C)nc21 [Example 144, 3-[[2-tert-butyl-6-(4-methylpiperazin-1-yl)purin-9-yl]methyl]-4-methyl-1,2,5-oxadiazole] |  | > 10
27 | CC(C)(C)c1nc(N2CCC[C@@H]2CO)c2ncn(Cc3nnnn3C3CC3)c2n1 [Example 146, [(2R)-1-[2-tert-butyl-9-[(1-cyclopropyltetrazol-5-yl)methyl]purin-6-yl]pyrrolidin-2-yl]methanol] |  | > 10
28 | CC(C)(C)c1nc(N2CC(F)(F)C2)c2ncn(Cc3ncccc3Cl)c2n1 [Example 160, 2-tert-butyl-9-[(3-chloropyridin-2-yl)methyl]-6-(3,3-difluoroazetidin-1-yl)purine] |  | > 10
29 | CC(C)(C)c1nc(N2CC[C@H](O)C2)c2ncn(Cc3nnnn3C(C)(C)C)c2n1 [Example 166, (3S)-1-[2-tert-butyl-9-[(1-tert-butyltetrazol-5-yl)methyl]purin-6-yl]pyrrolidin-3-ol] |  | > 10

Source: patent US9505762B2, “Purine derivatives as CB2 receptor agonists” (Hoffmann-La Roche Inc., priority 2013, dated 2016)
